For this assay, the target named is T1, human LPA1 (Homo sapiens, UniProt Q92633).
T1 construct: expressed in transfected cells; host or cells: CHO-K1
The experiment in a line: In vitro LPA1 functional antagonist assay (calcium mobilization, FLIPR). The format is cell-based. The note with it: CHO-K1 cells overexpressing human LPA1; Oleoyl LPA challenge; calcium mobilization on FLIPR Tetra. As for the experimental part:
In Vitro LPA1 Functional Antagonist Assay
CHO-K1 cells overexpressing human LPA1 were seeded in a total volume of 20 μL into black-walled, clear-bottom, Poly-D-lysine coated 384-well microplates and incubated at 37° C. for the appropriate time prior to testing. Assays were performed in 1× Dye Loading Buffer consisting of 1× Dye, 1× Additive A and 2.5 mM Probenecid in HBSS/20 mM Hepes. Probenicid was prepared fresh. Cells were loaded with dye prior to testing. Media was aspirated from cells and replaced with […] Dye Loading Buffer. Cells were incubated for 30-60 minutes at 37° C. After dye loading, cells were removed from the incubator and 10 μL 3× test compound was added. Cells were incubated for 30 minutes at room temperature in the dark to equilibrate plate temperature followed by Oleoyl LPA challenge at the 0.018 M. Compound antagonist activity was measured on a FLIPR Tetra (MDS). Calcium mobilization was monitored for 2 minutes and 10 μL Oleoyl LPA in HBSS/20 mM Hepes was added to the cells 5 seconds into the assay. Compound activity was analyzed using CBIS data analysis suite (ChemInnovation, CA). Percentage inhibition is calculated using the following formula:
% Inhibition=100%×(1−(mean RFU of test sample−mean RFU of vehicle control)/(mean RFU of LPA control−mean RFU of vehicle control)).
(In general: Calcium flux is commonly read through the fluorescence of an indicator in the cells.)

Some results are limits rather than exact numbers.

Broadly, the IC50 is the point on the concentration scale where inhibition reaches its midpoint.

T1 sequence (Q92633 whole entry): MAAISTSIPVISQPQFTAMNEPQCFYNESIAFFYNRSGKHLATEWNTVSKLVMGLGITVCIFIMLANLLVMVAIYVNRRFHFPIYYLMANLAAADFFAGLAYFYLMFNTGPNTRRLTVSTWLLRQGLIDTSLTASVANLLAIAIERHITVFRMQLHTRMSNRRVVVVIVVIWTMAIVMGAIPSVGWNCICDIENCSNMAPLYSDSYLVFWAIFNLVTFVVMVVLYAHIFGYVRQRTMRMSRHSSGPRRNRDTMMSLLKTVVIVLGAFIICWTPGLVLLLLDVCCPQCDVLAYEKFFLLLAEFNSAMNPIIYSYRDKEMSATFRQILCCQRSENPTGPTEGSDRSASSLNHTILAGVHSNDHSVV

Regarding `COc1cc([C@@H](O)[C@H](Cc2ccc(CC(=O)O)c(OC)n2)OC2CCCC2)cc(OC)c1C` [Compound 110a, 2-(6-((2S,3R)-2-(cyclopentyloxy)-3-(3,5-dimethoxy-4-methylphenyl)-3-hydroxypropyl)-2-methoxypyridin-3-yl)acetic acid], the IC50 came to 1650 nM.
As for `COc1cc([C@H](O)[C@H](Cn2cc3cccc(C(=O)O)c3n2)OCCc2ccccc2)cc(OC)c1C` [Compound 105b, 2-((2S,3S)-3-(3,5-dimethoxy-4-methylphenyl)-3-hydroxy-2-phenethoxypropyl)-2H-indazole-7-carboxylic acid], the IC50 was 49 nM.
Take `COc1cc([C@@H](O)[C@H](Cc2nc3cc(CC(=O)O)ccc3[nH]2)OC2CCCC2)cc(OC)c1C` [Compound 111a, 2-(2-((2S,3R)-2-(cyclopentyloxy)-3-(3,5-dimethoxy-4-methylphenyl)-3-hydroxypropyl)-1H-benzo[d]imidazol-5-yl)acetic acid]: the IC50 is over 10000 nM.
With `COc1cc([C@@H](O)[C@H](Cn2cc3cccc(C(=O)O)c3n2)OC2CCCC2)ccc1C(F)F` [Compound 121a], the IC50 amounted to 11.2 nM.
Turning to `COc1cc([C@@H](O)[C@H](Cc2ccc(CC(=O)O)c(OC)n2)OCCc2ccccc2)cc(OC)c1C` [Compound 130a, 2-(6-((2S,3R)-3-(3,5-dimethoxy-4-methylphenyl)-3-hydroxy-2-phenethoxypropyl)-2-methoxypyridin-3-yl)acetic acid], the IC50 was determined as 1190 nM.
As for `COc1cc([C@@H](O)[C@H](Cc2nc3cc(C(=O)O)ccc3[nH]2)OCC2CCC2)cc(OC)c1C` [Compound 131a, 2-((2S,3R)-2-(cyclobutylmethoxy)-3-(3,5-dimethoxy-4-methylphenyl)-3-hydroxypropyl)-1H-benzo[d]imidazole-5-carboxylic acid], the IC50 was over 10000 nM.
Turning to `COc1cc([C@@H](O)[C@H](Cn2cc3cccc(C(=O)O)c3n2)OCC2CCC2)cc(OC)c1C` [Compound 118a, 2-((2S,3R)-2-(cyclobutylmethoxy)-3-(3,5-dimethoxy-4-methylphenyl)-3-hydroxypropyl)-2H-indazole-7-carboxylic acid], the IC50 turned out to be 26.6 nM.
As to `COc1cc([C@@H](O)[C@H](Cc2nc3cc(C(=O)O)ccc3[nH]2)OC2Cc3ccccc3C2)cc(OC)c1C` [Compound 114a, 2-((2S, 3R)-2-((2,3-dihydro-1H-inden-2-yl)oxy)-3-(3,5-dimethoxy-4-methylphenyl)-3-hydroxypropyl)-1H-benzo[d]imidazole-5-carboxylic acid], the IC50 came to 125 nM.
Regarding `CC#CCCO[C@@H](Cn1cc(CC(=O)O)c(C(=O)OC)c1)[C@H](O)c1cc(OC)c(C)c(OC)c1` [Compound 101a, 2-(1-((2S,3R)-3-(3,5-dimethoxy-4-methylphenyl)-3-hydroxy-2-(pent-3-yn-1-yloxy)propyl)-4-(methoxycarbonyl)-1H-pyrrol-3-yl)acetic acid], the IC50 was found to be 213 nM.
In the case of `COC(=O)c1cn(C[C@H](OC2CCCC2)[C@H](O)c2cc(OC)c(C)c(OC)c2)cc1CC(=O)O` [Compound 102a, 2-(1-((2S,3R)-2-(cyclopentyloxy)-3-(3,5-dimethoxy-4-methylphenyl)-3-hydroxypropyl)-4-(methoxycarbonyl)-1H-pyrrol-3-yl)acetic acid] it was 14.5 nM; in that of `COc1cc([C@@H](O)[C@H](Cn2cc3cccc(C(=O)O)c3n2)OC2CCCC2)ccc1C1CC1` [Compound 125a], 80.7 nM; in that of `Cc1ccc([C@@H](O)[C@H](Cn2cc3cccc(C(=O)O)c3n2)OC2CCCC2)cn1` [Compound 127a], over 10000 nM.
In the case of `COc1cc([C@@H](O)[C@H](Cc2nc3cc(CC(=O)O)ccc3[nH]2)OC2Cc3ccccc3C2)cc(OC)c1C` [Compound 115a, 2-[2-[(2S,3R)-3-(3,5-dimethoxy-4-methyl-phenyl)-3-hydroxy-2-indan-2-yloxy-propyl]-1H-benzimidazol-5-yl]acetic acid] it was 30.8 nM; in that of `COc1cc([C@@H](O)[C@H](Cn2cc3cccc(C(=O)O)c3n2)OC2CCCC2)ccc1F` [Compound 139], 1350 nM; in that of `COc1cc([C@@H](O)[C@H](Cc2nc(CC(=O)O)cs2)OCC2CCC2)cc(OC)c1C` [Compound 122a], 1450 nM.
As for `N#Cc1cc([C@@H](O)[C@H](Cn2cc3cccc(C(=O)O)c3n2)OC2CCCC2)ccc1Cl` [Compound 134], the IC50 was over 10000 nM.
In the case of `COc1cc([C@@H](O)[C@H](Cc2nc(CC(=O)O)cs2)OC2Cc3ccccc3C2)cc(OC)c1C` [Compound 129a, 2-(2-((2S,3R)-2-((2,3-dihydro-1H-inden-2-yl)oxy)-3-(3,5-dimethoxy-4-methylphenyl)-3-hydroxypropyl)thiazol-4-yl)acetic acid], the IC50 came to 3.38 nM.
`COC(=O)c1cn(C[C@H](OCCc2ccccc2)[C@@H](O)c2cc(OC)c(C)c(OC)c2)cc1CC(=O)O` [Compound 132]: the IC50 is 1540 nM.
The same measure for `COc1cc([C@@H](O)[C@H](Cc2ccn(CC(=O)O)n2)OC2CCCC2)cc(OC)c1C` [Compound 116a]: 1470 nM.
As to `COc1cc([C@@H](O)[C@H](Cn2cc3cccc(C(=O)O)c3n2)OC2CCCC2)cc(OC)c1C` [Compound 108a, 2-((2S,3R)-2-(cyclopentyloxy)-3-(3,5-dimethoxy-4-methylphenyl)-3-hydroxypropyl)-2H-indazole-7-carboxylic acid], the IC50 is 3.05 nM.
As for `O=C(O)c1cccc2cn(C[C@H](OC3CCCC3)[C@@H](O)c3ccccc3)nc12` [Compound 137], the IC50 is over 10000 nM.
`COc1cc([C@@H](O)[C@H](Cc2ccc(CC(=O)O)cn2)OCCc2ccccc2)cc(OC)c1C` [Compound 106a, 2-(6-((2S,3R)-3-(3,5-dimethoxy-4-methylphenyl)-3-hydroxy-2-phenethoxypropyl)pyridin-3-yl)acetic acid]: the IC50 was 411 nM.
As for `COc1cc([C@@H](O)[C@H](Cc2nc3cc(C(=O)O)ccc3[nH]2)OC2CCCC2)cc(OC)c1C` [Compound 109a, 2-((2S,3R)-2-(cyclopentyloxy)-3-(3,5-dimethoxy-4-methylphenyl)-3-hydroxypropyl)-1H-benzo[d]imidazole-5-carboxylic acid], the IC50 was over 10000 nM.
As to `COc1cc([C@@H](O)[C@H](Cn2cc3cccc(C(=O)O)c3n2)OC2CCCCC2)cc(OC)c1C` [Compound 140], the IC50 is 11.8 nM.
Turning to `COc1cc([C@@H](O)[C@H](Cn2cc3cccc(C(=O)O)c3n2)OC(C)C)cc(OC)c1C` [Compound 145], the IC50 was determined as 72.6 nM.
As for `COc1cc([C@@H](O)[C@H](Cc2nc3c(C(=O)O)cccc3[nH]2)OC2CCCC2)cc(OC)c1C` [Compound 142], the half-inhibitory concentration (IC50) is over 10000 nM.
Turning to `COc1cc(C(O)C(Cn2ncc3cccc(C(=O)O)c32)OCCc2ccccc2)cc(OC)c1C` (stereo not shown) [Compound 107, 1-(3-(3,5-dimethoxy-4-methylphenyl)-3-hydroxy-2-phenethoxypropyl)-1H-indazole-7-carboxylic acid], the IC50 is over 10000 nM.
`O=C(O)c1cccc2cn(C[C@H](OC3CCCC3)[C@H](O)c3ccc(C(F)F)cc3)nc12` [Compound 128a]: the IC50 is 207 nM.

The values are drawn from US20240018102A1, “COMPOUNDS AND COMPOSITIONS FOR TREATING CONDITIONS ASSOCIATED WITH LPA RECEPTOR ACTIVITY” (Lhotse Bio, Inc., priority 2020, published 2024).
